Measured values from patent US20140315943A1, “COMBINATION THERAPY OF HSP90 INHIBITORY COMPOUNDS WITH MTOR/P13K INHIBITORS” (SYNTA PHARMACEUTICALS CORP., priority 2011, published 2014).
Read-outs that look alike come from different tables or passages of the source.

Assays:
AKT and ERK = assay: Western blot of signaling pathways, AKT and ERK activity; format: cell-based; details: A375 melanoma cells
Description: (§1) A375 melanoma cells (BRAF^V600E mutant) were purchased from the American Type Culture Collection (Manassas, Va.) and grown in RPMI or DMEM, in the presence of fetal bovine serum (10%), 2 mM L-glutamine and antibiotics (100 IU/ml penicillin and […] streptomycin) purchased from Sigma Aldrich. Cells were maintained at 37° C., 5% CO2 atmosphere.
(§2) Cells, treated with compound for 24 hr, were lysed in RIPA buffer (CST, Danvers, Mass., USA) on ice and clarified by centrifugation. Equal amounts of proteins were resolved by SDS-PAGE and immunoblotted with indicated antibodies. The antigen-antibody complex was visualized and quantitated using an Odyssey system (LI-COR, Lincoln, Nebr., USA).

4EBP1 = assay: Western blot, 4EBP1 dephosphorylation; format: cell-based; details: A375 melanoma cells
Description: as §1, §2

MEK = assay: Western blot, feedback activation of MEK; format: cell-based; details: melanoma cells, FIG. 5
Description: as §1, §2

[1] = test system: androgen receptor, AKT, PARP; assay: Western blot in LNCaP cells: androgen receptor, AKT, PARP cleavage; format: cell-based; details: FIG. 2
From the text: as §2

B-raf = details: cited from earlier work
[2] = test system: androgen receptor (AR), Akt; assay: Everolimus-induced AR expression and Akt activity, apoptosis (FIG. 1); format: cell-based; details: in combination with everolimus
From the text: as §2

| Compound | AKT and ERK activity (AKT and ERK) | dephosphorylation of 4EBP1 (4EBP1) | feedback activation of MEK (MEK) | Akt deactivation [1] | B-raf degradation (B-raf; A375 (V600E) versus CHL cells (wild type B-raf)) | B-raf degradation (B-raf; B-raf mutants E586K and L597V) | B-raf degradation (B-raf; B-raf mutants V600D, G469A, G469E, G596R, G466V, G594V in COS cells) | Inhibition of AKT (AKT and ERK; Western blot, FIG. 4) | apoptosis [2] | everolimus-induced AR expression and Akt activity [2] |
| --- | --- | --- | --- | --- | --- | --- | --- | --- | --- | --- |
| Cn1c(=O)n(-c2ccc(C(C)(C)C#N)cc2)c2c3cc(-c4cnc5ccccc5c4)ccc3ncc21 [BEZ235, 2-methyl-2-[4-[3-methyl-2-oxo-8-(quinolin-3-yl)-2,3-dihydroimidazo[4,5-c]quinolin-1-yl]phenyl]propionitrile] | enhanced the activity of AKT and ERK | sufficient to dephosphorylate 4EBP1 | feedback activation of MEK observed | able to deactivate Akt |  |  |  |  |  |  |
| C=CCNC1=C2C[C@@H](C)C[C@H](OC)[C@H](O)[C@@H](C)/C=C(\C)[C@H](OC(N)=O)[C@@H](OC)/C=C\C=C(/C)C(=O)NC(=CC1=O)C2=O [Compound 17AAG] |  |  |  |  | B-raf was degraded more rapidly than in CHL cells | not sensitive to degradation | degraded more rapidly than wild type B-raf |  |  |  |
| CC(C)c1cc(-c2nnc(O)n2-c2ccc3c(ccn3C)c2)c(O)cc1O [ganetespib, 3-(2,4-DIHYDROXY-5- ISOPROPYL-PHENYL)-4-(1- METHYL-INDOL-5-YL)-5- HYDROXY-[1,2,4] TRIAZOLE] | effective in disrupting AKT and ERK activity | could not completely dephosphorylate 4EBP1 |  |  |  |  |  | blocked by lower concentrations of ganetespib compared to BEZ-235 | increased apoptosis | sufficient in blocking everolimus-induced AR expression and Akt activity |
